Laboratory results reported in US20060063930A1, “Compositions and methods comprising proteinase activated receptor antagonists” (priority 2004, published 2006).
Where a name gives a salt, the structure may show the parent alone. Where no end group is shown, it is not given here. [ ]: non-standard residue; d: D form. Nip = nipecotic acid residue; Orn = NCCC[C@H](N)C(=O)O; Dab = NCC[C@H](N)C(=O)O; Dap = NC[C@H](N)C(=O)O

These compounds were tested on PAR-2 (assay: PAR signalling activity: calcium mobilization (Fluo-4) in response to peptide). Settings: FIGS. 2A-2C.
Format: cell-based
Description: Confluent HUVECs, Lewis lung carcinoma cells or U87-MG glioma cells or HT29 colon carcinoma cells were loaded for 30-60 minutes with the fluorescent dye Fluo-4. Final concentration 4 uM Fluo-4, 0.02% pluronic acid in physiological buffer. Cells were then washed with assay buffer, (HBSS containing 1 mM CaCl2, 1 mM MgSO4, and 2.5 mM probenecid). Cells were stimulated with various doses of PAR-2 activating peptide, PAR-1 activating peptide or ATP. Fluorescence was monitored using a Wallac 1470 fluorescent plate reader. (See Al-ani et. al Journal of Pharmacology and Experimental Therapeutics 290:2, 753-760)
Calcium mobilization curves of the PAR-2 agonist SLIGKV (ENMD-1003) (SEQ ID NO:52) compared with two truncated molecules LIGK (ENMD-1005) (SEQ ID NO:1) and LIGKV (ENMD-1007) (SEQ ID NO:2) are provided in FIG. 2A. […] Similar studies were performed on alanine substituted SLIGKV (ENMD-1003) (SEQ ID NO:52) peptides (FIGS. 2B and 2C).

With SLIGKV [ENMD-1003, reference compound] the “Calcium mobilization / PAR-2 signaling activity (in words)” value was “typical spike of calcium release followed by degradation of signal”.
In the case of SLIAKV [ENMD-1011], the “Calcium mobilization / PAR-2 signaling activity (in words)” value was “robust signaling activity”.
For SLIGKA [ENMD-1013], the “Calcium mobilization / PAR-2 signaling activity (in words)” value was “robust signaling activity”.
In the case of LIGKV [ENMD-1007], the “Calcium mobilization / PAR-2 signaling activity (in words)” value was “Neither truncated molecule was able to induce calcium mobilization”.

These compounds were tested on PAR-2 (assay: Inhibition of PAR-2 activating peptide (AP2) calcium signaling in cells pretreated with antagonist). Settings: mimetic antagonists; AUC of calcium mobilization treated/control; initially screened at 1 mM compound.
Format: cell-based, human
Design: key to PAR-2 AP2 Signaling Treated/Control (T/C) / PAR-2 AP2 Signaling Treated/Control: AUC of calcium mobilization, treated ÷ control wells
Procedure, shortened: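 LLC cells loaded with Fluo-4 (4 uM final), and U87-MG glioma cells loaded with FLIPR Calcium 3 dye with 2.5 mM probenecid, were pretreated with antagonist, then stimulated with PAR-2 activating peptide. Initial screening was at 1 mM. Calcium AUC of treated over control wells is reported as T/C.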

Compared with Br.CC(C)CC(=O)N1CCN(C(=O)CCCCCN)CC1 [ENMD-1068, 1-(4-(3-methylbutanoyl)piperazin-1-yl)-(6′-aminohexan-1-amide) hydrobromide], CCC(=O)N1CCN(C(=O)CCCCCN)CC1 [ENMD-1037, N′-propanoyl-N-4-[6′-aminohexanoyl]-piperazine] is lower in “PAR-2 AP2 Signaling Treated/Control” value: 0.58 for the first, 0.55 for the second.

Going from CC(C)CC(=O)N1CCN(C(=O)Cc2ccc(N)cc2)CC1 [ENMD-1065, N^1-3-methylbutyryl-N^4-[2-(4-aminophenyl)-ethanoyl]-piperazine] to CC(C)CC(=O)NCCNC(=O)Cc1ccc(N)cc1.Cl [ENMD-1416, N-(2-(2-(4-aminophenyl)acetamido)ethyl)-3-methylbutan-amide hydrochloride], the “PAR-2 AP2 Signaling Treated/Control” value rises from 0.34 to 0.48.

First: NCCCCNC(=O)c1ccc(OCC2CCCCC2)cc1 [ENMD-1406, N-(4-aminobutyl)-4-(cyclohexylmethoxy)-benzamide]
Second: NCCCCNC(=O)c1ccc(NC(=O)C2CCCCC2)cc1 [ENMD-1511, N-(4-aminobutyl)-4-(cyclohexanecarboxamido)-benzamide hydrochloride]
The “PAR-2 AP2 Signaling Treated/Control” value of the first is higher: 0.24 for the first, 0.13 for the second.

Compared with Nc1ccc(CCn2c(=O)n(CCC3CCCCC3)c3ccccc32)cc1 [ENMD-1574, 1-(4-aminophenethyl)-3-(2-cyclohexylethyl)-1H-benzo[d]imidazole-2(3H)-one], CC(C)CCn1c(=O)n(CCCCCCN)c2ccccc21 [ENMD-1517, 1-(6-aminohexyl)-3-[(3-methyl)butyl]benzimidazol(2)-one] is higher in “PAR-2 AP2 Signaling Treated/Control” value: 0.01 for the first, 0.52 for the second.

Going from CC(C)CNC(=O)c1cc(CNC(=O)CCCCN)on1 [ENMD-1555, 5-[(5-amino-pentanoylamino)-methyl]-isoxazole-3-carboxylic acid isobutyl-amide] to CC(C)CNC(=O)C1CN(C(=O)CCCCCN)CCO1 (stereo not drawn) [ENMD-1524, 4-(6-Amino-hexanoyl)-morpholine-2-carboxylic acid isobutyl-amide], the “PAR-2 AP2 Signaling Treated/Control” value falls from 0.86 to 0.73.

Going from NCCC1CCN(c2cnc(C(=O)NCCC3CCCCC3)cn2)CC1 [ENMD-1778, cyclohexylethyl-6-(4-aminoethylpiperdine)-2-pyrazine amide] to Cl.N[C@@H]1CCC[C@H](C(=O)N2CCN(C(=O)CC3CCCCC3)CC2)C1 [ENMD-1774, N^1-2-cyclohexylethanoyl-N-4-cis-3-amino-cyclohexane-carbonyl piperazine hydrochloride], the “PAR-2 AP2 Signaling Treated/Control” value rises from 0.05 to 0.75.

Compared with CCC(C)C(=O)N1CCN(C(=O)CCCCCN)CC1 (stereo not drawn) [ENMD-1033, N′-[S-2-methylbutanoyl]-N^4-[6′-aminohexanoyl]-piperazine], CC(C)Cn1cccc1C(=O)NCCCCCCN [ENMD-1537, N-(6-aminohexyl)-1-(2-methylpropyl)-2-pyrrolecarboxamide] is higher in “PAR-2 AP2 Signaling Treated/Control” value: 0.28 for the first, 0.91 for the second.

With CC(C)CNc1ccc(C(=O)NCCCCN)cn1 [ENMD-1541] the “PAR-2 AP2 Signaling Treated/Control” value was 0.65.

Same assay, conditions: mimetic antagonists; AUC of calcium mobilization treated/control; initially screened at 1 mM compound; hydrochloride

CC(C)CC(=O)Nc1nc(CC(=O)NCCCCCN)cs1 [ENMD-1561, N-{4-[(5-Amino-pentylcarbamoyl)-methyl]-thiazol-2-yl}-3-methyl-butyramide hydrochloride] was tested, and the “PAR-2 AP2 Signaling Treated/Control” value was 0.89.

Same assay, conditions: peptides; AUC of calcium mobilization treated/control; initially screened at 1 mM compound

Going from L-NiP-K (Leu-[Nip]-Lys) [ENMD-1058] to LIPK [ENMD-1052], the “PAR-2 AP2 Signaling Treated/Control (T/C)” value falls from 1.58 to 0.89.

Compared with IG-Orn (Ile-Gly-[Orn]) [ENMD-1029], LIGT [ENMD-1050] is higher in “PAR-2 AP2 Signaling Treated/Control (T/C)” value: 0.42 for the first, 0.70 for the second.

Compared with LIG-Dab (LIG[Dab]) [ENMD-1026], L-Nip-GK (L[Nip]GK) [ENMD-1059] is higher in “PAR-2 AP2 Signaling Treated/Control (T/C)” value: 0.23 for the first, 0.97 for the second.

First: LIGK-amide (LIGK-NH2) [ENMD-1020]
Second: IGK-amide (Ile-Gly-Lys-NH2) [ENMD-1021]
The “PAR-2 AP2 Signaling Treated/Control (T/C)” value of the first is lower: 0.54 for the first, 0.67 for the second.

First: LIG-Dap (LIG[Dap]) [ENMD-1027]
Second: LIGD [ENMD-1045]
The “PAR-2 AP2 Signaling Treated/Control (T/C)” value of the first is lower: 0.30 for the first, 0.39 for the second.

With “IG-Dab (Ile-Gly-[Dab]) [ENMD-1024, Dab=diamino butanoic acid]” the “PAR-2 AP2 Signaling Treated/Control (T/C)” value was 0.27.

Same assay, conditions: pretreated cells, then P2AP

Br.CC(C)CC(=O)N1CCN(C(=O)CCCCCN)CC1 [ENMD-1068, 1-(4-(3-methylbutanoyl)piperazin-1-yl)-(6′-aminohexan-1-amide) hydrobromide] was tested, and the “PAR-2 antagonist activity in vitro (in words)” value was “inhibitor of PAR-2 signaling in vitro”.
With LIGKV [ENMD-1007] the “PAR-2 antagonist activity in vitro (in words)” value was “demonstrated antagonist activity”.

These compounds were tested against T1, PAR-1 (Homo sapiens, UniProt P25116) (assay: Inhibition of PAR-1 activation peptide (SFLLRN) calcium signaling in pretreated cells). Settings: cells pretreated with antagonist.
T1 construct: endogenous in cells
T1 sequence (P25116 22-425): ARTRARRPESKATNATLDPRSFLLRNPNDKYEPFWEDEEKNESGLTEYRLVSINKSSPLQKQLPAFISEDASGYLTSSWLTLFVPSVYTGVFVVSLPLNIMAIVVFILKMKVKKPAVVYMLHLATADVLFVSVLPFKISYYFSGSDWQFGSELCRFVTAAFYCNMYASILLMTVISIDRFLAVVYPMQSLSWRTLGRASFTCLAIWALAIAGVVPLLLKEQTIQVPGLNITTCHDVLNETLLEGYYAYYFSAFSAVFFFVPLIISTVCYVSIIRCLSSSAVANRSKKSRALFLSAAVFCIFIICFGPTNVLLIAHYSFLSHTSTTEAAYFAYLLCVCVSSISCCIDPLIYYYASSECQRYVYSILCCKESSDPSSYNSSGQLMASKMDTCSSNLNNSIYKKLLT
Format: cell-based
Description: (§1) In order to assess the potential of peptides and molecules selected above to block PAR-2 signaling, cells were pretreated with potential antagonist peptides for a predetermined amount of time and were subsequently treated with various GPCR agonists. Confluent Lewis lung carcinoma (LLC) cells were loaded for 30-60 minutes with the fluorescent dye Fluo-4. Final concentration 4 uM Fluo-4, 0.02% pluronic acid in physiological buffer. Cells were then washed with assay buffer, (HBSS containing 1 mM CaCl2, 1 mM MgSO4, and 2.5 mM probenecid). Cells were stimulated with various doses of PAR-2 activating peptide, PAR-1 activating peptide or ATP. Fluorescence was monitored using a Wallac 1470 fluorescent plate reader. (See Al-ani et. al Journal of Pharmacology and Experimental Therapeutics 290:2, 753-760). Additional compound screening was performed using U87-MG human glioma cells. In this assay cells were labeled with FLIPR Calcium 3 dye (Component A), which was dissolved in 10 mls of Assay Buffer without Probenecid. Loading buffer was prepared by diluting Component A with an additional 90 mls of Assay Buffer without Probenecid, giving a total volume of a 100 ml. […] Calcium signaling was then measured using a Flexstation II (Molecular Devices) following manufacturer's instructions. […]

Br.CC(C)CC(=O)N1CCN(C(=O)CCCCCN)CC1 [ENMD-1068, 1-(4-(3-methylbutanoyl)piperazin-1-yl)-(6′-aminohexan-1-amide) hydrobromide] was tested, and the “Inhibitory effect on PAR-1 signaling” value was “no inhibitory effects”.

The compounds below were run on ATP signaling (assay: Inhibition of ATP calcium signaling in pretreated cells). Settings: cells pretreated with antagonist.
Format: cell-based
Description: as §1

Br.CC(C)CC(=O)N1CCN(C(=O)CCCCCN)CC1 [ENMD-1068, 1-(4-(3-methylbutanoyl)piperazin-1-yl)-(6′-aminohexan-1-amide) hydrobromide] was tested, and the “Inhibitory effect on ATP signaling” value was “no inhibitory effects”.

Each compound was assayed on BALB/c mice, arthritis (assay: Anti-collagen II antibody/LPS arthritis in mice (hind feet thickness)). Settings: 200 mg/kg/day intraperitoneally for 7 days.
Format: in vivo, mouse
Description: On day 0, BALB/c mice were injected intravenously with the 1-2 mg 1B11 monoclonal anti-collagen II antibody. On day 1, animals were injected intraperitoneally with 20 μg LPS, and treatment with PAR-2 antagonists (200 mg/kg/day, intraperitoneally) for 7 days. After treatment was completed, disease is quantified by measuring the thickness (swelling) in both hind feet of the mouse. This was compared to untreated mice (p<0.05 vs. vehicle control).

With Br.CC(C)CC(=O)N1CCN(C(=O)CCCCCN)CC1 [ENMD-1068, 1-(4-(3-methylbutanoyl)piperazin-1-yl)-(6′-aminohexan-1-amide) hydrobromide] the “Effect on inflammation / arthritis” value was “inhibited inflammation”.
